One data set has as its system Ser. marcescens ES-75. Briefly: Anti-bacterial activity (MIC), agar dilution. Format: cell-based. Particulars: Serratia marcescens, ES75, 18 h, Ser. marcescens ES-75; agar dilution, about 10^6 CFU/ml, 18 hours, 37° C.; read-out: MIC. An outline of the steps:
(§1)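 MIC values (μg/ml) come from agar dilution: strains grown overnight in Mueller-Hinton broth, diluted to roughly 10^6 CFU/ml, spotted on Mueller-Hinton agar containing twofold serial antibiotic dilutions, and read after 18 hours at 37° C.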
On the technique in general: Agar dilution tests growth on a series of plates holding different concentrations.

Data set [1] deals with Morganella morganii EP-14. Kind of data set: Anti-bacterial activity (MIC), agar dilution. Format: cell-based. The settings on record: Morganella morganii, EP14, 18 h, about 10^6 CFU/ml, 37° C., read-out: MIC. The procedure, abridged: as §1
For a further data set, the system named is Pseud. aeruginosa EP-01. Briefly: Anti-bacterial activity (MIC), agar dilution. The data set is classed as cell-based. The settings on record: Pseudomonas aeruginosa, EP01, 18 h, Pseud. aeruginosa EP-01; agar dilution, about 10^6 CFU/ml, 18 hours, 37° C.; read-out: MIC. An outline of the steps: as §1
In the next data set the test system is Staph. aureus 209-P. Briefly: Anti-bacterial activity (MIC), agar dilution. The data set is classed as cell-based. The settings on record: Staphylococcus aureus, 209P, 18 h, Staph. aureus 209-P; agar dilution, about 10^6 CFU/ml, 18 hours, 37° C.; read-out: MIC. The procedure, abridged: as §1
Another data set relates to Escher. coli NIHJ. Kind of data set: Anti-bacterial activity (MIC), agar dilution. The data set is classed as cell-based. Particulars: Escherichia coli, 18 h, Escher. coli NIHJ; agar dilution, about 10^6 CFU/ml, 18 hours, 37° C.; read-out: MIC. The procedure, abridged: as §1
Another data set deals with Kleb. pneumoniae EK-6. Briefly: Anti-bacterial activity (MIC), agar dilution. Format: cell-based. The settings on record: Klebsiella pneumoniae, EK6, 18 h. An outline of the steps: as §1
A further data set in a line: in vivo. The settings on record: intravenous, physiological saline solution, five ICR male 6 weeks-old mouse, read-out: values of acute toxicity. From the text: (1) Acute toxicity in mouse:
The compounds according to this invention dissolved in a physiological saline solution were intravenously dosed to five ICR male 6 weeks-old mouse.

The mark [2] stands for this setting: Kleb. pneumoniae EK-6, agar dilution, about 10^6 CFU/ml, 18 hours, 37° C., read-out: MIC.

In brackets after ≈: the same amount, converted by molar mass. Where two headings read alike, the source gives them in different places.

Broadly, the MIC is the lowest concentration found to suppress growth.

Take `NC(=O)C[N+]1(C/C=C/C2=C(C(=O)[O-])N3C(=O)[C@@H](NC(=O)/C(=N\OCF)c4nsc(N)n4)[C@H]3SC2)CCC(O)C1` (stereo partly drawn) [Example 9-1, 7β-[2-(5-Amino-1,2,4-thiadiazol-3-yl)-(Z)-2-fluoromethoxyiminoacetamido]-3-[(E)-3-(1-carbamoylmethyl-3-hydroxy-1-pyrrolidinio)-1-propen-1-yl]-3-cephem-4-carboxylate]: the MIC is ≤ 0.025 µg/mL in the data set on Ser. marcescens ES-75; ≤ 0.025 µg/mL in data set [1]; 0.8 µg/mL (≈ 1.37 µM) with Pseud. aeruginosa EP-01; 0.4 µg/mL (≈ 0.684 µM) in the data set with Staph. aureus 209-P; ≤ 0.025 µg/mL with Escher. coli NIHJ; ≤ 0.025 µg/mL with Kleb. pneumoniae EK-6 (setting [2]). In addition, the LD50 in the data set “in vivo” was > 2000 mg/kg.

Regarding `C[N+]1(C/C=C/C2=C(C(=O)[O-])N3C(=O)[C@@H](NC(=O)/C(=N\OCF)c4nsc(N)n4)[C@H]3SC2)CCN(S(=O)(=O)O)CC1` [Example 10, 7β-[2-(5-Amino-1,2,4-thiadiazol-3-yl)-(Z)-2-fluoromethoxyiminoacetamido]-3-[(E)-3-(1-methyl-4-sulfo-1-piperazinio)-1-propen-1-yl]-3-cephem-4-carboxylate], the MIC with Ser. marcescens ES-75 is ≤ 0.025 µg/mL; in data set [1], ≤ 0.025 µg/mL; with Pseud. aeruginosa EP-01, 1.56 µg/mL (≈ 2.51 µM); in the data set with Staph. aureus 209-P, 0.8 µg/mL (≈ 1.29 µM); with Escher. coli NIHJ it was ≤ 0.025 µg/mL; in the data set on Kleb. pneumoniae EK-6 (setting [2]), ≤ 0.025 µg/mL. For the same compound, in the data set “in vivo”, the LD50 was > 2000 mg/kg.

Take `NC(=O)C[N+]1(C/C=C/C2=C(C(=O)[O-])N3C(=O)[C@@H](NC(=O)/C(=N\OCF)c4nsc(N)n4)[C@H]3SC2)CCC(O)CC1` (stereo partly drawn) [Example 11, 7β-[2-(5-Amino-1,2,4-thiadiazol-3-yl)-(Z)-2-fluoromethoxyiminoacetamido]-3-[(E)-3-(1-carbamoylmethyl-4-hydroxy-1-piperidinio)-1-propen-1-yl]-3-cephem-4-carboxylate]: the minimal inhibitory concentration (MIC) in the data set on Ser. marcescens ES-75 is ≤ 0.025 µg/mL; in data set [1] it was ≤ 0.025 µg/mL; with Pseud. aeruginosa EP-01, 0.8 µg/mL (≈ 1.34 µM); in the data set with Staph. aureus 209-P, 0.4 µg/mL (≈ 0.668 µM); with Escher. coli NIHJ, ≤ 0.025 µg/mL; in the data set on Kleb. pneumoniae EK-6 (setting [2]), ≤ 0.025 µg/mL. Moreover, in “in vivo”, the LD50 is > 2000 mg/kg.

In the case of `CC12C[N+](C/C=C/C3=C(C(=O)[O-])N4C(=O)[C@@H](NC(=O)/C(=N\OCF)c5nsc(N)n5)[C@H]4SC3)(CCO1)CCO2` [Example 12, 7β-[2-(5-Amino-1,2,4-thiadiazol-3-yl)-(Z)-2-fluoromethoxyiminoacetamido]-3-[(E)-3-(5-aza-1-methyl-2,8-dioxabicyclo[3.3.1]nona-5-io)-1-propen-1-yl]-3-cephem-4-carboxylate], the minimal inhibitory concentration (MIC) in the data set with Ser. marcescens ES-75 is 0.1 µg/mL (≈ 0.171 µM); in data set [1], 0.05 µg/mL (≈ 0.0857 µM); with Pseud. aeruginosa EP-01, 1.56 µg/mL (≈ 2.67 µM); in the data set with Staph. aureus 209-P, 0.4 µg/mL (≈ 0.685 µM); in the data set with Escher. coli NIHJ it was 0.05 µg/mL (≈ 0.0857 µM); with Kleb. pneumoniae EK-6, ≤ 0.025 µg/mL. Besides, the LD50 in “in vivo” is > 2000 mg/kg.

For the compound `CC[N+](CC)(C/C=C/C1=C(C(=O)[O-])N2C(=O)[C@@H](NC(=O)/C(=N\OCF)c3nsc(N)n3)[C@H]2SC1)CC(N)=O` [Example 96], the MIC with Ser. marcescens ES-75 was ≤ 0.025 µg/mL; in data set [1] it was ≤ 0.025 µg/mL; with Pseud. aeruginosa EP-01, 0.8 µg/mL (≈ 1.4 µM); with Staph. aureus 209-P it was 0.2 µg/mL (≈ 0.35 µM); in the data set on Escher. coli NIHJ, ≤ 0.025 µg/mL; with Kleb. pneumoniae EK-6 (setting [2]) it was ≤ 0.025 µg/mL. Also, in “in vivo”, the LD50 is > 2000 mg/kg.

With `C[N+]1(C/C=C/C2=C(C(=O)[O-])N3C(=O)[C@@H](NC(=O)/C(=N\OCF)c4nsc(N)n4)[C@H]3SC2)CCN(C(N)=O)CC1` [Example 121, 7β-[2-(5-Amino-1,2,4-thiadiazol-3-yl)-(Z)-2-fluoromethoxyiminoacetamido]-3-[(E)-3-(1-methyl-4-carbamoyl-1-piperazinio)-1-propen-1-yl]-3-cephem-4-carboxylate], the MIC was 0.1 µg/mL (≈ 0.171 µM) in the data set with Ser. marcescens ES-75; ≤ 0.025 µg/mL in data set [1]; 0.8 µg/mL (≈ 1.37 µM) with Pseud. aeruginosa EP-01; 0.2 µg/mL (≈ 0.343 µM) in the data set with Staph. aureus 209-P; ≤ 0.025 µg/mL in the data set on Escher. coli NIHJ; ≤ 0.025 µg/mL in the data set on Kleb. pneumoniae EK-6 (setting [2]). Moreover, in “in vivo”, the LD50 is > 2000 mg/kg.
